Source: patent US5077293A, “1-indolyalkyl-4-(alkoxypyrimidinyl)piperazines” (Bristol-Myers Squibb Co., priority 1990, dated 1991)

These compounds were tested on serotonin uptake (assay: Inhibition of serotonin uptake (in vitro): inhibition of synaptosomal reuptake of tritiated serotonin).
Format: biochemical
Experimental: Determination of endogenous monoaminergic re-uptake inhibition values both for serotonin and norepinephrine was accomplished using test methods described by P. Skolnick, et al., Br. J. Pharmacology (1985), 86, pp. 637-644; with only minor modifications. In vitro IC50 (nM) test values were determined for representative compounds of Formula I based on their inhibition of synaptosomal reuptake of tritiated serotonin. Test data IC50 values lower than 500 nM are considered to reflect activity as an inhibitor of serotonin reuptake. Compounds with Ic50 values lower than 100 nM comprise preferred compounds.

Which IC50 does the source give for `COc1cncnc1N1CCN(CCCc2c[nH]c3ccc(F)cc23)C(C)C1` (stereo not shown) [Example 23, 3-[3-[4-(5-Methoxy-4-pyrimidinyl)-2-methyl-1-piperazinyl]propyl]-5-fluoroindole] here?
The IC50 was 0.03 nM.

With `COc1cncnc1N1CCN(CCCc2c[nH]c3ccc(F)cc23)CC1` [Example 24, 3-[3-[4-(5-Methoxy-4-pyrimidinyl)-1-piperazinl]propyl]-5-fluoroindole] as the compound, how does the IC50 read?
Its IC50 is 0.3 nM.

How did the IC50 turn out when `COc1cncnc1N1CCN(CCCc2c[nH]c3cc(F)ccc23)C(C)C1` (stereo not shown) [Example 25, 3-[3-[4-(5-Methoxy-4-pyrimidinyl)-2-methyl-1-pioerazinyl]-propyl]-6-fluoroindole] was run?
The IC50 was 3.7 nM.

For `CCOc1cncnc1N1CCN(CCCc2c[nH]c3ccccc23)CC1` [Example 27], which IC50 is on record?
Its IC50 is 6.35 nM.

For `COc1cncnc1N1CCN(CCCc2c[nH]c3ccccc23)CC1` [Example 28], which IC50 is on record?
The IC50 was 4.3 nM.

With `COc1cncnc1N1CCN(CCCc2c[nH]c3ccc(Cl)cc23)CC1` [Example 29] as the compound, how does the IC50 read?
The IC50 was 2.9 nM.

`COc1cncnc1N1CCN(CCCc2c[nH]c3cc(F)c(F)cc23)C(C)C1` (stereo not shown) [Example 30] was tested. Which IC50 did it give?
The IC50 was 1.46 nM.

For `COc1cncnc1N1CCN(CCc2c[nH]c3ccc(F)cc23)CC1` [Example 31], which IC50 is on record?
Its IC50 is 0.92 nM.

Which IC50 does the source give for `COc1cncnc1N1CCN(CCCc2c[nH]c3ccc(Cl)cc23)C(C)C1` (stereo not shown) [Example 32] here?
The IC50 was 2.1 nM.

Which IC50 does the source give for `CCC1CN(c2ncncc2OC)CCN1CCCc1c[nH]c2ccccc12` (stereo not shown) [Example 33] here?
The IC50 was 2.64 nM.

For `COc1cncnc1N1CCN(CCc2c[nH]c3cc(F)c(F)cc23)CC1` [Example 34], which IC50 is on record?
The IC50 was 3.1 nM.

With `COc1cncnc1N1CCN(CCc2c[nH]c3ccc(F)cc23)C(C)C1` (stereo not shown) [Example 35] as the compound, how does the IC50 read?
The IC50 was 3.1 nM.

Which IC50 does the source give for `COc1cncnc1N1CCN(CCCc2cn(C)c3ccccc23)C(C)C1` (stereo not shown) [Example 36] here?
The IC50 was 4.7 nM.

With `COc1cc(N2CCN(CCCc3c[nH]c4ccccc34)CC2)ncn1` [Example 37] as the compound, how does the IC50 read?
Its IC50 is 5.85 nM.

With `CCOc1cncnc1N1CCN(CCCc2c[nH]c3ccccc23)C(C)C1` (stereo not shown) [Example 38] as the compound, how does the IC50 read?
Its IC50 is 13.4 nM.

`COc1cc(N2CCN(CCCc3c[nH]c4ccccc34)C(C)C2)ncn1` (stereo not shown) [Example 39] was tested. Which IC50 did it give?
Its IC50 is 9.3 nM.
